In patent publication US20240034753A1, “THERAPEUTIC PEPTIDES” (COHBAR, INC., priority 2020, published 2024):
Square brackets hold non-standard residues; d marks the D form. Ends that are not written are not given here. Peptide text beside a SMILES is read from it. Nle = CCCC[C@H](N)C(=O)O

Assays:
[1] = tested on: SH-SY5Y Neuroblastoma Cells; assay: ATP levels (CellTiter-Glo); assay type: cell-based, human; conditions: peptide 10 μM, 18-20 hours, relative to 0.1% DMSO treated control
Protocol: The effect of the peptides on cellular metabolism can be assessed using an assay of ATP levels in cultured cells such as human neuroblastoma cells. Peptides were initially prepared as 10 mM stock in DMSO and used at a final concentration of 10 μM (0.1% DMSO). […] CellTiter-Glo® Assay kit was purchased from Promega. SH-SY5Y human bone marrow neuroblastoma cell line was purchased from American Type Culture Collection (Manassas, VA) and licensed from Memorial Sloan-Kettering Cancer Center (New York, NY). SH-SY5Y cells were grown in DMEM/F12 medium supplemented with 10% FBS with 100 IU/ml penicillin and 100 μg/ml streptomycin. Cultures were maintained at 37° C. in a humidified atmosphere of 5% CO2/95% air. SH-SY5Y cells were seeded at 30,000 cells per well on 96-well plates. […] ATP levels were determined using a CellTiter-Glo Assay kit (Promega) according to the manufacturer's instructions. Luminescence for each sample well on the plate was measured using a Cytation 3 plate reader (BioTek, Winooski, VT). Activity was calculated relative to 0.1% DMSO treated control. The relative standard deviation of the result for the 0.1% DMSO treated control was <5%.

3T3-L1 Mouse Adipocytes = assay: Free fatty acid levels in cultured mouse adipocytes stimulated with isoproterenol; assay type: cell-based; conditions: peptide 10 μM, 20-22 hours then 3 hours with 1 nM isoproterenol; relative to isoproterenol treated cells
Protocol: The effect of the peptides on fatty acid metabolism can be assessed using an assay of free fatty acid levels in cultured cells such as mouse adipocytes. Peptides were initially prepared as 10 mM stock in DMSO and used at a final concentration of 10 μM (0.1% DMSO). […] Mouse 3T3-L1 cells purchased from ZenBio were seeded at 3,000 cells per well in 96-well plates in Pre-adipocyte Medium (Zen-Bio) and grown to confluence at 37° C. in a humidified atmosphere of 5% CO2/95% air. Two days after confluence, cells were placed in Adipocyte Differentiation Medium (Zen-Bio) and cultured for three additional days at 37° C. in a humidified atmosphere of 5% CO2/95% air. The culture media was then replaced with Adipocyte Maintenance Medium (Zen-Bio) and the cells maintained for an additional 9-12 days at 37° C. in a humidified atmosphere of 5% CO2/95% air with partial medium replacement every other day. Following 12-15 days of differentiation, test peptides were added at a final concentration of 10 μM in 0.1% DMSO and incubated for 20-22 hours in Adipocyte Maintenance Medium at 37° C. in a humidified atmosphere of 5% CO2/95% air. After 20-22 hours, 1 nM isoproterenol was added to all wells except untreated controls and test peptides were replenished. Insulin at 100 nM was added to control wells. Cells were incubated for 3 hours in Assay Buffer (Zen-Bio) at 37° C. in a humidified atmosphere of 5% CO2/95% air. Free fatty acid concentrations in the media were determined using a Free Fatty Acid Assay kit (Zen-Bio) according to the manufacturer's instructions using a Cytation 3 plate reader at 540 nm (BioTek, Winooski, VT). Absorbance values were corrected for untreated background and expressed relative to isoproterenol treated cells. Treatment with isoproterenol (1 nM) alone was used as the free fatty acid level stimulatory control. The relative standard deviation of the isoproterenol control was <10%. […] Free fatty acid levels for insulin (100 nM) treatment were <5% of the isoproterenol control value.

With CSCC[C@H](NC(=O)CNC(=O)[C@@H](C)NC(=O)[C@H](CC(N)=O)NC(=O)[C@H](Cc1c[nH]cn1)NC(=O)[C@H](CC(C)C)NC(=O)[C@H](CCC(=O)O)NC(=O)[C@H](Cc1c[nH]c2ccccc12)NC(=O)[C@H](CCC(N)=O)NC(=O)[C@@H](N)CCCNC(=N)N)C(=O)N[C@@H](CO)C(=O)N[C@@H](C)C(=O)N[C@@H](Cc1ccccc1)C(=O)N[C@@H](CS)C(=O)O [compound 15] (H-RQWELHN[dA]GMSAFC-OH; N-terminus and C-terminus assumed) the “ATP Levels, % Control” value [1] was 101.8% and the “Free Fatty Acid Levels, MEAN %ISO” value (3T3-L1 Mouse Adipocytes) was 54.5%.

CC[C@H](C)[C@H](NC(=O)[C@H](CC(C)C)NC(=O)[C@H](C)NC(=O)[C@@H](N)CCSC)C(=O)N[C@@H](CC(C)C)C(=O)N[C@H](C(=O)N[C@@H](CC(C)C)C(=O)N[C@H](C(=O)N[C@@H](CC(C)C)C(=O)N[C@H](C)C(=O)O)C(C)C)[C@@H](C)O [compound 4] (H-MALILTLVL[dA]-OH; N-terminus and C-terminus assumed) was tested, and the “ATP Levels, % Control” value [1] was 102.2% and the “Free Fatty Acid Levels, MEAN %ISO” value (3T3-L1 Mouse Adipocytes) was 71.3%.

For CC[C@H](C)[C@H](NC(=O)[C@@H](NC(=O)CNC(=O)[C@@H](C)NC(=O)[C@@H](N)CCSC)C(C)C)C(=O)N[C@@H](CCCNC(=N)N)C(=O)NCC(=O)N[C@H](C(=O)N[C@@H](CC(C)C)C(=O)N[C@H](C(=O)N[C@@H](CC(C)C)C(=O)O)C(C)C)C(C)C [compound 9] (H-M[dA]GVIRGVLVL-OH; N-terminus and C-terminus assumed), the “ATP Levels, % Control” value [1] was 105.9% and the “Free Fatty Acid Levels, MEAN %ISO” value (3T3-L1 Mouse Adipocytes) was 88.2%.

In the case of MRQWILHNGGMSFFC [compound 12], the “ATP Levels, % Control” value [1] is reported as 101.0% and the “Free Fatty Acid Levels, MEAN %ISO” value (3T3-L1 Mouse Adipocytes) is reported as 67.1%.

CSCC[C@H](NC(=O)[C@H](CCCNC(=N)N)NC(=O)[C@H](CCCNC(=N)N)NC(=O)[C@@H](N)CCCNC(=N)N)C(=O)N[C@@H](Cc1ccccc1)C(=O)N[C@@H](CO)C(=O)N[C@@H](CS)C(=O)N[C@@H](Cc1ccc(O)cc1)C(=O)N[C@H](C)C(=O)N[C@@H](Cc1ccc(O)cc1)C(=O)O [compound 19] (H-RRRMFSCY[dA]Y-OH; N-terminus and C-terminus assumed) was tested, and the “ATP Levels, % Control” value [1] was 106.7% and the “Free Fatty Acid Levels, MEAN %ISO” value (3T3-L1 Mouse Adipocytes) was 64.0%.

With CC[C@H](C)[C@H](NC(=O)[C@H](CC(C)C)NC(=O)[C@H](CC(C)C)NC(=O)[C@@H](N)CCSC)C(=O)N[C@@H](CC(C)C)C(=O)N[C@H](C(=O)N[C@@H](CC(C)C)C(=O)N[C@H](C(=O)N[C@@H](CC(C)C)C(=O)N[C@H](C)C(=O)O)C(C)C)[C@@H](C)O [compound 3] (H-MLLILTLVL[dA]-OH; N-terminus and C-terminus assumed) the “ATP Levels, % Control” value [1] was 104.8% and the “Free Fatty Acid Levels, MEAN %ISO” value (3T3-L1 Mouse Adipocytes) was 57.7%.

In the case of RQWILHNGGMSFFC [compound 13], the “ATP Levels, % Control” value [1] is reported as 101.2% and the “Free Fatty Acid Levels, MEAN %ISO” value (3T3-L1 Mouse Adipocytes) is reported as 74.0%.

In the case of CC[C@H](C)[C@H](NC(=O)[C@@H](NC(=O)[C@H](Cc1c[nH]cn1)NC(=O)[C@H](CCCNC(=N)N)NC(=O)[C@H](CC(=O)O)NC(=O)[C@H](Cc1ccc(O)cc1)NC(=O)[C@H](CC(C)C)NC(=O)[C@H](CC(C)C)NC(=O)[C@@H](NC(=O)[C@@H](N)Cc1c[nH]c2ccccc12)C(C)C)C(C)C)C(=O)NCC(=O)NCC(=O)N[C@@H](CO)C(=O)N[C@@H](CC(C)C)C(=O)N[C@@H](CS)C(=O)N[C@H](C(=O)N[C@H](C(=O)N[C@H](C(=O)N[C@@H](CCC(N)=O)C(=O)N[C@H](C(=O)N[C@@H](CCC(=O)O)C(=O)N[C@H](C)C(=O)N[C@@H](Cc1ccc(O)cc1)C(=O)O)C(C)C)C(C)C)C(C)C)C(C)C [compound 23] (H-WVLLYDRHVIGGSLCVVVQVE[dA]Y-OH; N-terminus and C-terminus assumed), the “ATP Levels, % Control” value [1] is reported as 105.9% and the “Free Fatty Acid Levels, MEAN %ISO” value (3T3-L1 Mouse Adipocytes) is reported as 77.1%.

With CCCC[C@H](NC(=O)[C@H](CCCNC(=N)N)NC(=O)[C@H](CCCNC(=N)N)NC(=O)[C@@H](N)CCCNC(=N)N)C(=O)N[C@@H](Cc1ccccc1)C(=O)N[C@@H](CO)C(=O)N[C@@H](CS)C(=O)N[C@@H](Cc1ccc(O)cc1)C(=O)N[C@H](C)C(=O)N[C@@H](Cc1ccc(O)cc1)C(=O)O [compound 20] (H-RRR[Nle]FSCY[dA]Y-OH; N-terminus and C-terminus assumed) the “ATP Levels, % Control” value [1] was 106.9% and the “Free Fatty Acid Levels, MEAN %ISO” value (3T3-L1 Mouse Adipocytes) was 65.6%.

MMAGVIRGVLVL [compound 7] was tested, and the “ATP Levels, % Control” value [1] was 103.9% and the “Free Fatty Acid Levels, MEAN %ISO” value (3T3-L1 Mouse Adipocytes) was 66.4%.

With GWVLLYDRHVIGGSLCVVVQVEAY [compound 22] the “ATP Levels, % Control” value [1] was 103.5% and the “Free Fatty Acid Levels, MEAN %ISO” value (3T3-L1 Mouse Adipocytes) was 84.7%.

MAGVIRGVLVL [compound 8] was tested, and the “ATP Levels, % Control” value [1] was 101.1% and the “Free Fatty Acid Levels, MEAN %ISO” value (3T3-L1 Mouse Adipocytes) was 76.9%.

CC[C@H](C)[C@H](NC(=O)[C@H](Cc1c[nH]c2ccccc12)NC(=O)[C@H](CCC(N)=O)NC(=O)[C@@H](N)CCCNC(=N)N)C(=O)N[C@@H](CC(C)C)C(=O)N[C@@H](Cc1c[nH]cn1)C(=O)N[C@@H](CC(N)=O)C(=O)N[C@H](C)C(=O)NCC(=O)N[C@@H](CCSC)C(=O)N[C@@H](CO)C(=O)N[C@@H](Cc1ccccc1)C(=O)N[C@@H](Cc1ccccc1)C(=O)N[C@@H](CS)C(=O)O [compound 14] (H-RQWILHN[dA]GMSFFC-OH; N-terminus and C-terminus assumed) was tested, and the “ATP Levels, % Control” value [1] was 98.4% and the “Free Fatty Acid Levels, MEAN %ISO” value (3T3-L1 Mouse Adipocytes) was 70.4%.

With MRRRMFSCYLY [compound 17] the “ATP Levels, % Control” value [1] was 104.6% and the “Free Fatty Acid Levels, MEAN %ISO” value (3T3-L1 Mouse Adipocytes) was 46.1%.

For CC[C@H](C)[C@H](NC(=O)[C@@H](NC(=O)CNC(=O)[C@@H](C)NC(=O)[C@@H](N)CCSC)C(C)C)C(=O)N[C@@H](CCCNC(=N)N)C(=O)N[C@@H](C)C(=O)N[C@H](C(=O)N[C@@H](CC(C)C)C(=O)N[C@H](C(=O)N[C@@H](CC(C)C)C(=O)O)C(C)C)C(C)C [compound 10] (H-M[dA]GVIRAVLVL-OH; N-terminus and C-terminus assumed), the “ATP Levels, % Control” value [1] was 103.2% and the “Free Fatty Acid Levels, MEAN %ISO” value (3T3-L1 Mouse Adipocytes) was 96.4%.

In the case of MLLILTLVLL [compound 2], the “ATP Levels, % Control” value [1] is reported as 99.9% and the “Free Fatty Acid Levels, MEAN %ISO” value (3T3-L1 Mouse Adipocytes) is reported as 80.7%.

In the case of CC[C@H](C)[C@H](NC(=O)[C@H](CC(C)C)NC(=O)[C@H](C)NC(=O)[C@@H](N)CCSC)C(=O)N[C@@H](CC(=O)O)C(=O)N[C@H](C(=O)N[C@@H](CC(C)C)C(=O)N[C@H](C(=O)N[C@@H](CC(C)C)C(=O)N[C@H](C)C(=O)O)C(C)C)[C@@H](C)O [compound 5] (H-MALIDTLVL[dA]-OH; N-terminus and C-terminus assumed), the “ATP Levels, % Control” value [1] is reported as 97.1% and the “Free Fatty Acid Levels, MEAN %ISO” value (3T3-L1 Mouse Adipocytes) is reported as 95.7%.

CC[C@H](C)[C@H](NC(=O)[C@@H](NC(=O)[C@H](Cc1c[nH]cn1)NC(=O)[C@H](CCCNC(=N)N)NC(=O)[C@H](CC(=O)O)NC(=O)[C@H](Cc1ccc(O)cc1)NC(=O)[C@H](CC(C)C)NC(=O)[C@H](CC(C)C)NC(=O)[C@@H](NC(=O)[C@@H](N)Cc1c[nH]c2ccccc12)C(C)C)C(C)C)C(=O)NCC(=O)NCC(=O)N[C@@H](CO)C(=O)N[C@@H](CC(C)C)C(=O)N[C@@H](CS)C(=O)N[C@H](C(=O)N[C@@H](CCC(N)=O)C(=O)N[C@H](C(=O)N[C@@H](CCC(N)=O)C(=O)N[C@H](C(=O)N[C@@H](CCC(=O)O)C(=O)N[C@H](C)C(=O)O)C(C)C)C(C)C)C(C)C [compound 25] (H-WVLLYDRHVIGGSLCVQVQVE[dA]-OH; N-terminus and C-terminus assumed) was tested, and the “ATP Levels, % Control” value [1] was 106.9% and the “Free Fatty Acid Levels, MEAN %ISO” value (3T3-L1 Mouse Adipocytes) was 91.6%.

With RRRMFSCYLY [compound 18] the “ATP Levels, % Control” value [1] was 108.6% and the “Free Fatty Acid Levels, MEAN %ISO” value (3T3-L1 Mouse Adipocytes) was 58.5%.
